According to US7312339B2, “Polyene oxazoles and processes for their preparation” (Thallion Pharmaceuticals Inc., priority 2003, dated 2007):

Columns and labels:
[1] = tested on: SF-295 (glioblastoma/human); assay: In vitro cytotoxicity (MTT cell survival), SF-295; format: cell-based; conditions: SF-295, 96 h exposure; for IC50: Homo sapiens
Procedure: (§1) Cells were passaged two to three times per week. Cellular viability was examined by staining with trypan blue and only flasks where cell viability was >95% were used to determine cytotxicity.
(§2) Exponentially growing cells (1-3×10^3 cells per 100 μl) were seeded in 96-well plates and incubated for 16 h. Cells were then exposed continuously to various concentrations of compounds of Formula I in serum-supplemented medium. Cell survival was evaluated 96 h later by replacing the culture media with 150 μl fresh medium containing 10 mM 4-(2-hydroxyethyl)-1-piperazineethanesulfonic acid buffer, pH 7.4. Next, 50 μl of 2.5 mg/ml of 3-(4,5-dimethylthiazo-2-yl)-2,5-diphenyltetrazolium bromide (MTT; Sigma, St. Louis, Mo.) in phosphate buffer solution, pH 7.4, was added. After 3-4 h of incubation at 37° C., the medium and MTT was removed, and 200 μl of dimethylsulfoxide was added to dissolve the precipitate of reduced MTT followed by addition of 25 μl glycine buffer (0.1 M glycine plus 0.1 M NaCl, pH 10.5). The absorbance was determined at 570 nm with a microplate reader (BIORAD). Cell survival was estimated as % of cells treated with the vehicle alone.

P388 (leukemia/mouse) = assay: In vitro cytotoxicity (MTT cell survival), P388; format: cell-based; conditions: P388, 96 h exposure; for IC50: Mus musculus
Procedure: as §1, §2

EKVX (lung/human) = assay: In vitro cytotoxicity (MTT cell survival), EKVX; format: cell-based; conditions: 96 h exposure; for IC50: Homo sapiens
Procedure: as §1, §2

A498 (renal/human) = assay: In vitro cytotoxicity (MTT cell survival), A498; format: cell-based; conditions: A498, 96 h exposure; for IC50: Homo sapiens, mean from 3 independent experiments
Procedure: as §1, §2

[2] = tested on: MDA-MD-231 (breast/human); assay: In vitro cytotoxicity (MTT cell survival), MDA-MD-231; format: cell-based; conditions: MDA-MD-231, 96 h exposure; for IC50: Homo sapiens, mean from 3 independent experiments
Procedure: as §1, §2

HCT116 (colon/human) = assay: In vitro cytotoxicity (MTT cell survival), HCT116; format: cell-based; conditions: for In Vitro Cytotoxicity Data (Log M): HCT116, 96 h exposure; for IC50: Homo sapiens, HCT-116, HCT116, 96 h exposure, mean from 3 independent experiments
Procedure: as §1, §2

PC3 (prostate/human) = assay: In vitro cytotoxicity (MTT cell survival), PC3; format: cell-based; conditions: PC3, 96 h exposure; for IC50: Homo sapiens, mean from 3 independent experiments
Procedure: as §1, §2

[3] = tested on: HRE (renal/normal, human); assay: In vitro cytotoxicity (MTT cell survival), HRE; format: cell-based; conditions: HRE normal renal cells, 96 h exposure
Procedure: as §1, §2

[4] = In vitro cytotoxicity (MTT cell survival), HRE; format: cell-based, human; conditions: human, HRE normal renal cells, 96 h exposure
Procedure: as §1, §2

B16 (melanoma/mouse) = assay: In vitro cytotoxicity (MTT cell survival), B16; format: cell-based; conditions: B16, 96 h exposure; for IC50: Mus musculus
Procedure: as §1, §2

T24 (bladder/human) = assay: In vitro cytotoxicity (MTT cell survival), T24; format: cell-based; conditions: T24, 96 h exposure; for IC50: Homo sapiens
Procedure: as §1, §2

Row | SMILES | IC50 [1] [µM] | In Vitro Cytotoxicity Data (Log M) [1] | IC50 (P388 (leukemia/mouse)) [µM] | In Vitro Cytotoxicity Data (Log M) (P388 (leukemia/mouse)) | In Vitro Cytotoxicity Data (Log M) (EKVX (lung/human)) | IC50 (EKVX (lung/human)) [µM] | In Vitro Cytotoxicity Data (Log M) (A498 (renal/human)) | IC50 (A498 (renal/human)) [µM] | IC50 [2] [µM] | In Vitro Cytotoxicity Data (Log M) [2] | In Vitro Cytotoxicity Data (Log M) (HCT116 (colon/human)) | IC50 (HCT116 (colon/human)) [µM] | IC50 (PC3 (prostate/human)) [µM] | In Vitro Cytotoxicity Data (Log M) (PC3 (prostate/human)) | In Vitro Cytotoxicity Data (Log M) [3] | IC50 at 96 h [4] [µM] | In Vitro Cytotoxicity Data (Log M) (B16 (melanoma/mouse)) | IC50 (B16 (melanoma/mouse)) [µM] | IC50 (T24 (bladder/human)) [µM] | In Vitro Cytotoxicity Data (Log M) (T24 (bladder/human))
1 | COC(=O)C(C(C)OC)N(C)C(=O)C1(N(O)C(=O)/C=C/C=C/C=C/C=C\CNC(=O)C(C)(C)C(O)\C(C)=C/C=C\C=C\Cc2cnco2)COCO1 (stereo not shown) [Compound 1] | 27.1 | (Log −4.56 M) Log M | 6.3 | (Log −5.19 M) Log M | (Log −4.42 M) Log M | 37.4 | (Log −4.78 M) Log M | 15.6 | 12.9 | (Log −4.88 M) Log M | (Log −4.60 M) Log M | 24.8 | 20.7 | (Log −4.69 M) Log M | (Log −5.05 M) Log M | 8.8 | (Log −4.34 M) Log M | 44.8 | 30.5 | (Log −4.51 M) Log M
2 | COC(=O)C(C(C)OC)N(C)C(=O)C1(N(O)C(=O)/C=C/C=C/C=C/C=C\CNC(=O)C(C)(C)C(O)\C(C)=C/C=C\C=C\Cc2cnc(C)o2)COCO1 (stereo not shown) [Compound 2] | 17.5 | (Log −4.75 M) Log M | 8.1 | (Log −5.05 M) Log M | (Log −4.62 M) Log M | 23.9 | (Log −4.88 M) Log M | 13.1 | 13.2 | (Log −4.88 M) Log M | (Log −4.56 M) Log M | 27.5 | 20.7 | (Log −4.67 M) Log M | (Log −4.69 M) Log M | 20.2 | (Log −4.34 M) Log M | 45.5 | 18.9 | (Log −4.72 M) Log M
